The values below come from EP0629402A1, “Pharmaceutical compositions containing ipsapirone” (BAYER AG, priority 1993, dated 1994).

The nature of this data set: Pharmacokinetic studies: bioavailability after oral administration. To be noted: in vivo, nach oraler Gabe, read-out: Bioverfügbarkeit. The source says:
Als Ergebnis pharmakokinetischer Untersuchungen wurde festgestellt, daß Ipsapiron nach oraler Gabe eine Bioverfügbarkeit von nur 40 % aufweist. Ein erheblicher Wirkstoffanteil wird bereits präsystemisch metabolisiert und kann nicht bioverfügbar werden. Dies ist nachteilig, weil dieser Substanzverlust durch eine erhöhte Wirkstoffdosis ausgeglichen werden muß. Es resultieren große, für den Patienten schlecht schluckbare Arzneiformen und eine erhebliche Belastung des Patienten mit pharmakologisch inaktiven Ipsapiron-Metaboliten. Ferner nehmen mit sinkender Bioverfugbarkeit die interindividuellen Schwankungen im Plasmakonzentrationsverlauf zu und die Therapie wird unkalkulierbar.

For `O=C1c2ccccc2S(=O)(=O)N1CCCCN1CCN(c2ncccn2)CC1` [Ipsapiron], the bioavailability is 40%.
